Measurements taken from patent publication US8703720B2, “Galactoside inhibitors of galectins” (Galecto Biotech AB, priority 2009, dated 2014).

Columns and labels:
galectin-1 = galectin-1 (Homo sapiens (Human), UniProt P09382); assay: Fluorescence polarization-based galectin-1 inhibition assay; assay type: binding; settings: calculated from test by fluorescence polarization at the tested conc.
Source text: (§1) The known galectin inhibitors galactose and N-acetyllactosamine methyl glycosides were included as reference compounds.
(§2) Identification of the substances was made by HRMS (Micromass Q-tof micro) and NMR (Bruker Ultrashield 400 plus, 400 MHz). Chemical shifts are reported downfield from Me4Si using residual CHD2Cl (7.26 ppm) or CHD2OD (3.35 ppm) as reference. Chemical shifts and coupling constants were obtained from ^1H-NMR and proton resonances were assigned from COSY experiments. Purification was made by RF-HPLC (Beckman, system gold) or flash chromatography, using silica gel (Davisil 35-70 μm, 60 Å). Reactions were followed by TLC (Aluminum sheet, silica gel 60 F254) observed by UV light, H2SO4(aq) or a iso-vanillin/H2SO4/EtOH solution. THF and Et2O were dried over sodium/benzophenone and distilled. CH2Cl2 was dried by molecular sieves (4 Å, 1.6 mm). Other solvents and reagents were commercially available and used without further purifications. Fluorescence polarization experiments were performed on a PolarStar instrument (BMG, Offenburg; Germany). Evaluation of 7, 15-19, and 22 as inhibitors of galectins was performed by use of fluorescence polarization as described in the literature (Sörme et al., 2003a, 2004).

galectin-3 = galectin-3 (Homo sapiens (Human), UniProt P17931); assay: Fluorescence polarization-based galectin-3 inhibition assay; assay type: binding; settings: calculated from test by fluorescence polarization at the tested conc.
Source text: as §1, §2

galectins = settings: all galectins, cited from earlier work

Chain of galectin-1 (P09382 whole entry, species assumed): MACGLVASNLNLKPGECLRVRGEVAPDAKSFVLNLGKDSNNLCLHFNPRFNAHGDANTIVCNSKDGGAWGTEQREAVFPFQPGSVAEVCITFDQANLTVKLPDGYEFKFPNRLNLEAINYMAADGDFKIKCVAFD
Chain of galectin-3 (P17931 whole entry): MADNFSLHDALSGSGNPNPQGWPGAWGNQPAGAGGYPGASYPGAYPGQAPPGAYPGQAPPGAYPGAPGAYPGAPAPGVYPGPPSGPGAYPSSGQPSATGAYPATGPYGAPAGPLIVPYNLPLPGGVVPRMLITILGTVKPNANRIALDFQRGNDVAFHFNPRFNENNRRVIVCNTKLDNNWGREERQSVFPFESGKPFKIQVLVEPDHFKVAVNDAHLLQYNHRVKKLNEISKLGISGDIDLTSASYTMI

## OC[C@H]1O[C@@H](S[C@@H]2CCC[C@H](n3cc(-c4cccc(F)c4)nn3)[C@H]2O)[C@H](O)[C@@H](n2cc(-c3cccc(F)c3)nn2)[C@H]1O [Compound 16, ((1R,2R,3S)-2-hydroxy-3-(4-(3-fluorophenyl)-1H-1,2,3-triazol-1-yl)-cyclohexyl) 3-deoxy-3-(4-(3-fluorophenyl)-1H-1,2,3-triazol-1-yl)-1-thio-β-D-galactopyranoside]
galectin-1
  Kd: 1.5 µM

## CCCNC(=O)c1cn(C2CCC[C@@H](S[C@@H]3OC(CO)[C@H](O)[C@H](n4cc(C(=O)NCCC)nn4)C3O)C2O)nn1 (stereo partly drawn) [Compound 19, ((1R,2R,3S)-2-hydroxy-3-(4-(propylcarbamoyl)-1H-1,2,3-triazol-1-yl)-cyclohexyl)-3-deoxy-3-(4-(propylcarbamoyl)-1H-1,2,3-triazol-1-yl)-thio-β-D-galactopyranoside]
galectin-3
  Kd: 0.19 µM
galectin-1
  Kd: 1.3 µM

## O=C(NC1CCC[C@@H](S[C@@H]2OC(CO)[C@H](O)[C@H](NC(=O)c3ccc(Cl)cc3)C2O)C1O)c1ccc(Cl)cc1 (stereo partly drawn) [Compound 23, ((1R,2R,3S)-2-hydroxy-3-(4-chlorobenzamido)-cyclohexyl)-3-deoxy-3-(4-chlorobenzamido)-thio-β-D-galactopyranoside]
galectin-3
  Kd: 1.4 µM
galectin-1
  Kd: 6.3 µM

## O=C[C@H](O)[C@@H](O)[C@@H](O)[C@H](O)CO [D-galactose]
galectins; compared with lactose
  affinity relative to lactose: 50-100 times lower

## OC[C@H]1O[C@@H](O[C@H]2[C@H](O)[C@@H](O)C(O)O[C@@H]2CO)[C@H](O)[C@@H](O)[C@H]1O (some centres unmarked) [lactose]
galectins
  Kd: 500 to 1000 µM

## OC[C@H]1O[C@@H](S[C@@H]2CCC[C@H](n3cc(-c4ccsc4)nn3)[C@H]2O)[C@H](O)[C@@H](n2cc(-c3ccsc3)nn2)[C@H]1O [Compound 18, ((1R,2R,3S)-2-hydroxy-3-(4-(3-thiopheneyl)-1H-1,2,3-triazol-1-yl)-cyclohexyl) 3-deoxy-3-(4-(3-thienyl)-1H-1,2,3-triazol-1-yl)-1-thio-β-D-galactopyranoside]
galectin-3
  Kd: 0.55 µM
galectin-1
  Kd: 0.35 µM

## CCCNC(=O)c1cn([C@H]2[C@@H](O)[C@@H](CO)O[C@@H](O[C@@H]3CCC[C@H](n4cc(C(=O)NCCC)nn4)[C@H]3O)[C@@H]2O)nn1 [Compound 7, ((1R,2R,3S)-2-hydroxy-3-(4-(N-(1-propyl)-carbamoyl)-1H-1,2,3-triazol-1-yl)cyclohexyl) 3-deoxy-(3-(4-(N-(1-propyl)-carbamoyl)-1H-1,2,3-triazol-1-yl))-β-D-galactopyranoside]
galectin-3
  Kd: 0.43 µM

## OC[C@H]1O[C@@H](S[C@@H]2CCC[C@H](n3cc(-c4ccc(F)cc4)nn3)[C@H]2O)[C@H](O)[C@@H](n2cc(-c3ccc(F)cc3)nn2)[C@H]1O [Compound 17, ((1R,2R,3S)-2-hydroxy-3-(4-(4-fluorophenyl)-1H-1,2,3-triazol-1-yl)-cyclohexyl) 3-deoxy-3-(4-(4-fluorophenyl)-1H-1,2,3-triazol-1-yl)-1-thio-β-D-galactopyranoside]
galectin-3
  Kd: 0.21 µM
galectin-1
  Kd: 1.2 µM

## OC[C@H]1O[C@@H](S[C@@H]2CCC[C@H](n3cc(-c4ccccc4F)nn3)[C@H]2O)[C@H](O)[C@@H](n2cc(-c3ccccc3F)nn2)[C@H]1O [Compound 15, ((1R,2R,3S)-2-hydroxy-3-(4-(2-fluorophenyl)-1H-1,2,3-triazol-1-yl)-cyclohexyl) 3-deoxy-3-(4-(2-fluorophenyl)-1H-1,2,3-triazol-1-yl)-1-thio-β-D-galactopyranoside]
galectin-3
  Kd: 0.23 µM
galectin-1
  Kd: 1.9 µM
